Key:
mice = assay: Toxicity of Epox-PP (sodium salt) in mice, intravenous injection; type: in vivo
Experimental: Five 30 g mice received an intravenous injection (caudal vein) of 300 μl of PBS buffer containing 1 mg of Epox-PP (sodium salt). […] Toxicity is thus less than 20% for a dose of 33.4 mg of Epox-PP (sodium salt) per kilogram of animal body weight.

Tγ9δ2 lymphocyte clone = assay: Induced cytotoxicity test of a Tγ9δ2 lymphocyte clone; type: cell-based; conditions: for concentration at which the compound is active: stimulation of specific cytotoxic activity
Tγ9δ2 lymphocytes = assay: Bioactivity (induced cytotoxicity test) after transient chemical treatment; type: cell-based; parameters: key: + indicates detection of activity upon Tγ9δ2 lymphocytes; − indicates that no activity could be detected; conditions: diluted 1:30 from 5 to 10 μM solutions
Experimental: The bioactivity of the compound according to the invention Epox-PP (obtained as stated in Example 1) is compared with that of a stock preparation of Tubag natural phosphoantigens obtained as described in WO 95/20673.
Bioactivity is measured by an induced cytotoxicity test as described in Example 6 using the compound to be tested diluted 1:30 from 5 to 10 μM solutions of the compounds.
Before bioactivity is measured, the compounds are subjected to a transient chemical treatment by being brought into contact with one of the following reagents: NaIO4 (5 mM); NaBH3CN (10 mM, pH 7); KMnO4 (1 mM); bromine water Br2, H2O (7 mM), followed by neutralization of the reagent.

human Tγ9δ2 lymphocytes [1] = tested on: human Tγ9δ2 lymphocytes
human Tγ9δ2 lymphocytes [2] = conditions: prior art prenyl pyrophosphates, best results obtained; cited from earlier work

Substance	sign of shock or pyrogenicity (mice; 1 mg i.v. (caudal vein) per 30 g mouse)	variation in the weight of the mice (mice; 1 mg i.v. per 30 g mouse, during the study)	Toxicity (mice; dose of 33.4 mg per kilogram of animal body weight, i.v.)	mice still alive after 30 days (mice; five mice, 1 mg i.v. per 30 g mouse, 30 days)	concentration at which the compound is active (Tγ9δ2 lymphocyte clone)	Bioactivity after chemical treatment: KMnO4 (1 mM) (Tγ9δ2 lymphocytes; KMnO4 1 mM)	Bioactivity after chemical treatment: NaBH3CN (10 mM pH7) (Tγ9δ2 lymphocytes; NaBH3CN 10 mM pH 7)	Bioactivity after chemical treatment: NaIO4 (5 mM) (Tγ9δ2 lymphocytes; NaIO4 5 mM)	Bioactivity after chemical treatment: Br2, H2O (7 mM) (Tγ9δ2 lymphocytes; bromine water 7 mM)	Bioactivity after chemical treatment: none (Tγ9δ2 lymphocytes; no reagent)	minimum active concentration relative to natural phosphoantigens (human Tγ9δ2 lymphocytes [1])	minimum concentration at which activity could be demonstrated (human Tγ9δ2 lymphocytes [2])	active concentration relative to the compound from Example 1 (Tγ9δ2 lymphocyte clone; IPP versus Epox-PP)
3,4-epoxy-3-methyl-1-butyl diphosphate [Epox-PP (sodium salt)]	No sign of shock or pyrogenicity	no significant variation	less than 20%	5 mice	–	–	–	–	–	–	–	–	–
3,4-epoxy-3-methyl-1-butyl diphosphate [Epox-PP]	–	–	–	–	~20 nM	+	+	+	+	+	–	–	–
isopentenylpyrophosphate [IPP]	–	–	–	–	~3000 nM	–	–	–	–	–	~1000 times higher	≥ 3 µM	150 times higher

Source: US7432253B2, “Phosphoepoxides, method for making same and uses” (Institut National de la Sante et de la Recherche Medicale, priority 1998, dated 2008)
